According to US20230117034A1, “PYRAZOLOTRIAZINES” (Bayer Aktiengesellschaft, priority 2019, published 2023):

Columns and labels:
CDK12/CycK = CDK12/CycK (Homo sapiens, UniProt Q9NYV4); test: CDK12/CycK high ATP kinase assay (TR-FRET, 2 mM ATP); format: biochemical; details: 2 mM ATP (high ATP); median; read-out: CDK12/CyclinK, 2 mM ATP (high ATP), IC50-[mol/l] (median)
Method in brief: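 His-tagged human CDK12/CycK (~0.75 nM) pre-incubated 15 min with compound, then 60 min at 22 °C with 2 mM ATP and 1 µM biotinylated peptide (HEPES pH 7.5, 20 mM MgCl2). EDTA stop; phospho-Ser62 antibody/Eu anti-rabbit and streptavidin-XL665 TR-FRET, 665/620 nm ratio normalised to give IC50.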

[1] = target: T1, CYCLIN K (nuclear staining in CAL-120 cells) (Homo sapiens, UniProt O75909); test: CYCLIN K nuclear protein level: immunofluorescence high content analysis (CAL-120); format: cell-based; details: 24 h, 50% reduction of nuclear CCNK staining intensity, median, read-out: CYCLIN K degradation IF, DC50-[mol/l] (median)
T1 construct: endogenous in cells; host or cells: CAL-120 human breast cancer cells (DSMZ ACC 459)
T1 sequence (O75909 whole entry): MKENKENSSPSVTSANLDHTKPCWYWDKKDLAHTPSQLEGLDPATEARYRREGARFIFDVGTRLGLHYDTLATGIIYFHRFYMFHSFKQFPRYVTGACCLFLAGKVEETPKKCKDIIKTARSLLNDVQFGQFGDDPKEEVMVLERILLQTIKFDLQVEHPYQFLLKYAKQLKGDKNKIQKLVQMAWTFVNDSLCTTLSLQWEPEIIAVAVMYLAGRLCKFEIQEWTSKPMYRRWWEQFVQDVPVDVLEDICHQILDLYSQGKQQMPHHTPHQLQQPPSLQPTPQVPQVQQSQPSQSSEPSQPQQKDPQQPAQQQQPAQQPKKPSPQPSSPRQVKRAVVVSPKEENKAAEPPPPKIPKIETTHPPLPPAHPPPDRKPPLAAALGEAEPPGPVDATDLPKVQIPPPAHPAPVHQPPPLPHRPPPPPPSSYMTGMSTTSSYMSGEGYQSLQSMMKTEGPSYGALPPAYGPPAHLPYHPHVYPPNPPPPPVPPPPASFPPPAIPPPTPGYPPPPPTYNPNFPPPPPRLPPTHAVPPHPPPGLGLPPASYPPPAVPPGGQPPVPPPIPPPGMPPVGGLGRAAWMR
T1 sequence (Q9NYV4 whole entry partner): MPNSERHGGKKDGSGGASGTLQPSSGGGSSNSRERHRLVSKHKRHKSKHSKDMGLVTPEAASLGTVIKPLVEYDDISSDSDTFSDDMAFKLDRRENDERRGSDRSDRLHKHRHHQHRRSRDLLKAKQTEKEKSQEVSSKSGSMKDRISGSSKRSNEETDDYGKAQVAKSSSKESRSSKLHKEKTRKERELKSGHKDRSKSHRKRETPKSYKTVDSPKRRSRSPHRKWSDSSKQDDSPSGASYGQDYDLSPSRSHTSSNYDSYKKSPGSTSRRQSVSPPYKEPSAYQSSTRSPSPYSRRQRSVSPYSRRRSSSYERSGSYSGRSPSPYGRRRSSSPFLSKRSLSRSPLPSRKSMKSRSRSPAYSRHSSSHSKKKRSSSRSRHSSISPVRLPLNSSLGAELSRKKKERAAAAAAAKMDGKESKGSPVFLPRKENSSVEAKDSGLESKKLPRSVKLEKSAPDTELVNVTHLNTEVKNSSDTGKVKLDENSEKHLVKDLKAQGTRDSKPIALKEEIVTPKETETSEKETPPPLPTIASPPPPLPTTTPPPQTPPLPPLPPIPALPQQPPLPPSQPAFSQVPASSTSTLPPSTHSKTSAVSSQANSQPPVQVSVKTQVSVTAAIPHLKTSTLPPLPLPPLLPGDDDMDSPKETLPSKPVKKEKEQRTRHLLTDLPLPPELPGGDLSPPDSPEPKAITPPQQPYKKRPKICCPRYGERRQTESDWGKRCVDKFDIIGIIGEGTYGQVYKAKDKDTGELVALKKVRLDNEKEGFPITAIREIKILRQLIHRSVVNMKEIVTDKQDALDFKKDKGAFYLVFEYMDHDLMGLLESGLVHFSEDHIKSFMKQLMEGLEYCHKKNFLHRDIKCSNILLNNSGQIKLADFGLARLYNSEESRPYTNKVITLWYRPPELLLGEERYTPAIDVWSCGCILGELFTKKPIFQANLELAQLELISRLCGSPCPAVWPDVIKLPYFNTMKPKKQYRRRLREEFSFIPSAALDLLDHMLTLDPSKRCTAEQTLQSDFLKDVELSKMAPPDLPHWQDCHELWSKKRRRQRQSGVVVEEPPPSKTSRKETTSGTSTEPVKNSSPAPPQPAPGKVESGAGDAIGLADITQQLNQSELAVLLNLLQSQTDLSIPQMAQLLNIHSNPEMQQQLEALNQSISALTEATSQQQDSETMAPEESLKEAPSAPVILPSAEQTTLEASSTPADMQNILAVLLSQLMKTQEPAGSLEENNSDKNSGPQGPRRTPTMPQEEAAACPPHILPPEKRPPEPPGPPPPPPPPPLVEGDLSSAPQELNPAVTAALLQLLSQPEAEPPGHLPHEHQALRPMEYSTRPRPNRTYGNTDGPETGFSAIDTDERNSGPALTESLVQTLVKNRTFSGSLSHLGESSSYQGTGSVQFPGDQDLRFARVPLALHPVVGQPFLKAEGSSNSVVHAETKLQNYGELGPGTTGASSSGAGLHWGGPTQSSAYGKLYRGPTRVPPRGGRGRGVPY
Method in brief: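 CAL-120 breast cancer cells treated in dose-response for 24 h at 37 °C, PFA-fixed and immunostained for cyclin K with Hoechst counterstain. Confocal imaging quantified nuclear intensity; DC50 is the concentration giving 50% reduction of nuclear CCNK staining, normalized to DMSO and control.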

CDK12/CycK, sequence (Q9NYV4 with tags, fused parts or gaps): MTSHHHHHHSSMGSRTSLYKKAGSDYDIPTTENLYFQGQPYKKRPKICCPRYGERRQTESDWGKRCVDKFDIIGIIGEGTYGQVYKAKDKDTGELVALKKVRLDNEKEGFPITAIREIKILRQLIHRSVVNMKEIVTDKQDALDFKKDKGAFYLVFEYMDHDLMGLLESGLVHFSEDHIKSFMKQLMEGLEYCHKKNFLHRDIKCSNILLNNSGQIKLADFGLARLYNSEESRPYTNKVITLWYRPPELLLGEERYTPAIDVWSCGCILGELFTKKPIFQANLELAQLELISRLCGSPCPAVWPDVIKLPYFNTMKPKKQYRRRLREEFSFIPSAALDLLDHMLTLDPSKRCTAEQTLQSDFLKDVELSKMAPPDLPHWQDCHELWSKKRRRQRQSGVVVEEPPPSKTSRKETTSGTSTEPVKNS
CDK12/CycK, sequence (O75909 1-300 partner limits assumed): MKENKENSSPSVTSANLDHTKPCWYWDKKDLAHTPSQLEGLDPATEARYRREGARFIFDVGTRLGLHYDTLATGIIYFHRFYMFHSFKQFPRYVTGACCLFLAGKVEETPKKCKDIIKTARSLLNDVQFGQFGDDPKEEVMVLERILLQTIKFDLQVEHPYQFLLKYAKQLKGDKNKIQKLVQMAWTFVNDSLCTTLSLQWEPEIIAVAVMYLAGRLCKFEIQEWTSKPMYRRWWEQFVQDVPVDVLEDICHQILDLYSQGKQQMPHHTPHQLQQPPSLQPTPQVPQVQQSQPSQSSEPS

Clc1cc2nc(CNc3nc(N4CC5CCC(C4)N5)nc4c(Br)cnn34)[nH]c2cc1Cl [Example 334, 8-bromo-2-(3,8-diazabicyclo[3.2.1]octan-3-yl)-N-[(5,6-dichloro-1H-benzimidazol-2-yl)methyl]pyrazolo[1,5-a][1,3,5]triazin-4-amine]
IC50 (CDK12/CycK): 2030 nM
DC50 [1]: 2.06 nM

CN(CC(C)(C)O)c1nc(NCc2nc3cc(C(F)(F)F)ccc3[nH]2)n2ncc(Br)c2n1 [Example 345, 1-{[8-bromo-4-({[5-(trifluoromethyl)-1H-benzimidazol-2-yl]methyl}amino)pyrazolo[1,5-a][1,3,5]triazin-2-yl](methyl)amino}-2-methylpropan-2-ol]
IC50 (CDK12/CycK): 661 nM
DC50 [1]: 0.698 nM

Cc1cc2nc(CNc3nc(N(C)CC(C)(C)O)nc4c(C5CC5)cnn34)[nH]c2cc1C [Example 321, 1-[(8-cyclopropyl-4-{[(5,6-dimethyl-1H-benzimidazol-2-yl)methyl]amino}pyrazolo[1,5-a][1,3,5]triazin-2-yl)(methyl)amino]-2-methylpropan-2-ol]
IC50 (CDK12/CycK): 416 nM
DC50 [1]: 1.36 nM

CN1C2CCC1CN(c1nc(NCc3nc4c(F)cccc4[nH]3)n3ncc(C(F)(F)F)c3n1)C2 [Example 384, N-[(4-fluoro-1H-benzimidazol-2-yl)methyl]-2-(8-methyl-3,8-diazabicyclo[3.2.1]octan-3-yl)-8-(trifluoromethyl)pyrazolo[1,5-a][1,3,5]triazin-4-amine]
IC50 (CDK12/CycK): 8110 nM
DC50 [1]: 0.662 nM

CN(CC(C)(C)O)c1nc(NCc2nc3cc(F)c(Cl)cc3[nH]2)n2ncc(Br)c2n1 [Example 338, 1-[(8-bromo-4-{[(6-chloro-5-fluoro-1H-benzimidazol-2-yl)methyl]amino}pyrazolo[1,5-a][1,3,5]triazin-2-yl)(methyl)amino]-2-methylpropan-2-ol]
IC50 (CDK12/CycK): 1180 nM
DC50 [1]: 0.17 nM

Fc1cc2nc(CNc3nc(N4CCOCC4)nc4c(Br)cnn34)[nH]c2cc1Cl [Example 336, 8-bromo-N-[(6-chloro-5-fluoro-1H-benzimidazol-2-yl)methyl]-2-(morpholin-4-yl)pyrazolo[1,5-a][1,3,5]triazin-4-amine]
IC50 (CDK12/CycK): 789 nM
DC50 [1]: 0.52 nM

Cc1[nH]c(CNc2nc(N3CCOCC3)nc3c(Br)cnn23)nc1-c1ccccc1 [Example 27, 8-bromo-N-[(5-methyl-4-phenyl-1H-imidazol-2-yl)methyl]-2-(morpholin-4-yl)pyrazolo[1,5-a][1,3,5]triazin-4-amine]
IC50 (CDK12/CycK): 3480 nM
DC50 [1]: 66.3 nM

Fc1cc2nc(CNc3nc(N4CC5CCC(C4)N5)nc4c(C5CC5)cnn34)[nH]c2cc1F [Example 325, 8-cyclopropyl-2-(3,8-diazabicyclo[3.2.1]octan-3-yl)-N-[(5,6-difluoro-1H-benzimidazol-2-yl)methyl]pyrazolo[1,5-a][1,5]triazin-4-amine]
IC50 (CDK12/CycK): 3550 nM
DC50 [1]: 0.53 nM

CC(C)c1cnn2c(NCc3ncc(-c4ccccc4)[nH]3)nc(N3CCOCC3)nc12 [Example 30, 2-(morpholin-4-yl)-N-[(5-phenyl-1H-imidazol-2-yl)methyl]-8-(propan-2-yl)pyrazolo[1,5-a][1,3,5]triazin-4-amine]
IC50 (CDK12/CycK): 2950 nM
DC50 [1]: 4.1 nM

CN(CC(C)(C)O)c1nc(NCc2nc3cc(Cl)c(Cl)cc3[nH]2)n2ncc(Br)c2n1 [Example 331, 1-[(8-bromo-4-{[(5,6-dichloro-1H-benzimidazol-2-yl)methyl]amino}pyrazolo[1,5-a][1,3,5]triazin-2-yl)(methyl)amino]-2-methylpropan-2-ol]
IC50 (CDK12/CycK): 350 nM
DC50 [1]: 0.44 nM

Cc1cc2nc(CNc3nc(N(C)CC(C)(C)O)nc4c(Br)cnn34)[nH]c2cc1C [Example 343, 1-[(8-bromo-4-{[(5,6-dimethyl-1H-benzimidazol-2-yl)methyl]amino}pyrazolo[1,5-a][1,3,5]triazin-2-yl)(methyl)amino]-2-methylpropan-2-ol]
IC50 (CDK12/CycK): 188 nM
DC50 [1]: 0.0978 nM

CN(CC(C)(C)O)c1nc(NCc2nc3cc(F)c(F)cc3[nH]2)n2ncc(Br)c2n1 [Example 347]
IC50 (CDK12/CycK): 2180 nM
DC50 [1]: 0.101 nM

Brc1cnn2c(NCc3nc4ccccc4[nH]3)nc(N3CCN4CCC3CC4)nc12 [Example 349, N-[(1H-benzimidazol-2-yl)methyl]-8-bromo-2-(1,4-diazabicyclo[3.2.2]nonan-4-yl)pyrazolo[1,5-a][1,3,5]triazin-4-amine]
IC50 (CDK12/CycK): 8670 nM
DC50 [1]: 0.784 nM

Fc1c(Cl)ccc2[nH]c(CNc3nc(N4CC5CCC(C4)N5)nc4c(C5CC5)cnn34)nc12 [Example 379, N-[(5-chloro-4-fluoro-1H-benzimidazol-2-yl)methyl]-8-cyclopropyl-2-(3,8-diazabicyclo[3.2.1]octan-3-yl)pyrazolo[1,5-a][1,3,5]triazin-4-amine]
IC50 (CDK12/CycK): 528 nM
DC50 [1]: 0.404 nM

Fc1cc2nc(CNc3nc(N4CC5CCC(C4)N5)nc4c(Br)cnn34)[nH]c2cc1Cl [Example 348, 8-bromo-N-[(6-chloro-5-fluoro-1H-benzimidazol-2-yl)methyl]-2-(3,8-diazabicyclo[3.2.1]octan-3-yl)pyrazolo[1,5-a][1,3,5]triazin-4-amine]
IC50 (CDK12/CycK): 2890 nM
DC50 [1]: 1.17 nM

Fc1c(Cl)ccc2[nH]c(CNc3nc(N4CCOCC4)nc4c(Br)cnn34)nc12 [Example 372, 8-bromo-N-[(5-chloro-4-fluoro-1H-benzimidazol-2-yl)methyl]-2-(morpholin-4-yl)pyrazolo[1,5-a][1,3,5]triazin-4-amine]
IC50 (CDK12/CycK): 269 nM
DC50 [1]: 0.227 nM

Fc1cc2nc(CNc3nc(N4CCOCC4)nc4c(C(F)(F)F)cnn34)[nH]c2cc1F [Example 333, N-[(5,6-difluoro-1H-benzimidazol-2-yl)methyl]-2-(morpholin-4-yl)-8-(trifluoromethyl)pyrazolo[1,5-a][1,3,5]triazin-4-amine]
IC50 (CDK12/CycK): 142 nM
DC50 [1]: 0.113 nM

Cc1cc2nc(CNc3nc(N4CCN(C)CC4)nc4c(Br)cnn34)[nH]c2cc1C [Example 342, 8-bromo-N-[(5,6-dimethyl-1H-benzimidazol-2-yl)methyl]-2-(4-methylpiperazin-1-yl)pyrazolo[1,5-a][1,3,5]triazin-4-amine]
IC50 (CDK12/CycK): 6650 nM
DC50 [1]: 0.053 nM

FC(F)(F)c1ccc2[nH]c(CNc3nc(N4CC5CCC(C4)N5)nc4c(C5CC5)cnn34)nc2c1 [Example 327, 8-cyclopropyl-2-(3,8-diazabicyclo[3.2.1]octan-3-yl)-N-{[5-(trifluoromethyl)-1H-benzimidazol-2-yl]methyl}pyrazolo[1,5-a][1,3,5]triazin-4-amine]
IC50 (CDK12/CycK): 2350 nM
DC50 [1]: 0.493 nM

FC(F)(F)c1ccc2[nH]c(CNc3nc(N4CC5CCC(C4)N5)nc4c(Br)cnn34)nc2c1 [Example 354, 8-bromo-2-(3,8-diazabicyclo[3.2.1]octan-3-yl)-N-{[5-(trifluoromethyl)-1H-benzimidazol-2-yl]methyl}pyrazolo[1,5-a][1,3,5]triazin-4-amine]
IC50 (CDK12/CycK): 3740 nM
DC50 [1]: 1.65 nM

CN1CCN(c2nc(NCc3nc4cc(F)c(Cl)cc4[nH]3)n3ncc(Br)c3n2)CC1 [Example 337, 8-bromo-N-[(6-chloro-5-fluoro-1H-benzimidazol-2-yl)methyl]-2-(4-methylpiperazin-1-yl)pyrazolo[1,5-a][1,3,5]triazin-4-amine]
IC50 (CDK12/CycK): 8720 nM
DC50 [1]: 0.369 nM

Cc1cc2nc(CNc3nc(N4CC5CCC(C4)N5)nc4c(Br)cnn34)[nH]c2cc1C [Example 353, 8-bromo-2-(3,8-diazabicyclo[3.2.1]octan-3-yl)-N-[(5,6-dimethyl-1H-benzimidazol-2-yl)methyl]pyrazolo[1,5-a][1,3,5]triazin-4-amine]
IC50 (CDK12/CycK): 2520 nM
DC50 [1]: 0.644 nM

Fc1cc2nc(CNc3nc(N4CCOCC4)nc4c(Br)cnn34)[nH]c2cc1F [Example 341, 8-bromo-N-[(5,6-difluoro-1H-benzimidazol-2-yl)methyl]-2-(morpholin-4-yl)pyrazolo[1,5-a][1,3,5]triazin-4-amine]
IC50 (CDK12/CycK): 2220 nM
DC50 [1]: 0.29 nM

Fc1cccc2[nH]c(CNc3nc(N4CC5CCC(C4)N5)nc4c(Cl)cnn34)nc12 [Example 363, 8-chloro-2-(3,8-diazabicyclo[3.2.1]octan-3-yl)-N-[(4-fluoro-1H-benzimidazol-2-yl)methyl]pyrazolo[1,5-a][1,3,5]triazin-4-amine]
IC50 (CDK12/CycK): 3310 nM

FC(F)(F)c1ccc2[nH]c(CNc3nc(N4CCOCC4)nc4c(Br)cnn34)nc2c1 [Example 339, 8-bromo-2-(morpholin-4-yl)-N-{[5-(trifluoromethyl)-1H-benzimidazol-2-yl]methyl}pyrazolo[1,5-a][1,3,5]triazin-4-amine]
IC50 (CDK12/CycK): 1550 nM

C[C@H]1CN(C)CCN1c1nc(NCc2nc3c(F)cccc3[nH]2)n2ncc(C(F)(F)F)c2n1 [Example 388, 2-[(2S)-2,4-dimethylpiperazin-1-yl]-N-[(4-fluoro-1H-benzimidazol-2-yl)methyl]-8-(trifluoromethyl)pyrazolo[1,5-a][1,3,5]triazin-4-amine]
IC50 (CDK12/CycK): 6840 nM

FC(F)(F)Oc1cccc2[nH]c(CNc3nc(N4CCOCC4)nc4c(Br)cnn34)nc12 [Example 375, 8-bromo-2-(morpholin-4-yl)-N-{[4-(trifluoromethoxy)-1H-benzimidazol-2-yl]methyl}pyrazolo[1,5-a][1,3,5]triazin-4-amine]
IC50 (CDK12/CycK): 4560 nM

CN(CC(C)(C)O)c1nc(NCc2nc3c(F)c(Cl)ccc3[nH]2)n2ncc(C3CC3)c2n1 [Example 387, 1-[(4-{[(5-chloro-4-fluoro-1H-benzimidazol-2-yl)methyl]amino}-8-cyclopropylpyrazolo[1,5-a][1,3,5]triazin-2-yl)(methyl)amino]-2-methylpropan-2-ol]
IC50 (CDK12/CycK): 233 nM
